In ChEMBL document CHEMBL1127102, “Structure-activity relationships of 2,3-benzodiazepine compounds with glutamate antagonistic action” (Bioorg Med Chem Lett, 1993):

Legend:
Mus musculus [1] = experiment: Tested in vivo for anticonvulsant activity using MES, MMS and IS relative potency compared to GYKI 52466; assay type: functional
Mus musculus [2] = experiment: Tested in vivo for the anticonvulsant activity by MMS test. 95% confidence limits are in brackets; assay type: functional
Mus musculus [3] = experiment: Tested in vivo for the anticonvulsant activity by MES test. 95% confidence limits are in brackets; assay type: functional
Mus musculus [4] = experiment: Tested in vivo for the anticonvulsant activity by IS test.; assay type: functional
Rattus norvegicus [5] = organism: Rattus norvegicus; experiment: Tested in vitro for the anticonvulsant activity (IC50 value was determined after 30 min perfusion application by MES test); assay type: functional, organism-based; settings: 0.5 h
Mus musculus [6] = organism: Mus musculus; experiment: Tested in vitro for the oral anticonvulsant activity by MES test; assay type: functional, organism-based
Rattus norvegicus [7] = organism: Rattus norvegicus; experiment: Tested in vitro for the relative potency against neuronal responses mediated by the non-NMDA type glutamate receptor compared to GYKI 52466; assay type: functional
Mus musculus [8] = experiment: Tested in vivo for the oral anticonvulsant activity by MES test; assay type: functional

SMILES	Relative potency (Mus musculus [1])	Relative potency (Rattus norvegicus [7])	further results
CC1Cc2cc3c(cc2C(c2ccc(N)cc2)=NN1C(=O)CN(C)C)OCO3 (centres undefined)	0	–	–
CC1=NN=C(c2ccc(N)cc2)c2cc3c(cc2C1)OCO3 [GYKI-52466]	–	–	ED50 (Mus musculus [2]): 107 mg/kg; ED50 (Mus musculus [3]): 30.6 mg/kg; ED50 (Mus musculus [4]): 45.1 mg/kg; IC50 (Rattus norvegicus [5]): 29.5 µM
CNC(=O)N1N=C(c2ccc(N)cc2)c2cc3c(cc2CC1C)OCO3 (centres undefined) [GYKI-53655]	4.39	2.46	IC50 (Mus musculus [6]): 12 µM; ED50 (Mus musculus [8]): 8.4 mg/kg
CC1Cc2cc3c(cc2C(c2ccc(N)cc2)=NN1C(=O)C(F)(F)F)OCO3 (centres undefined)	0	–	–
CC1Cc2cc3c(cc2C(c2ccc(N)cc2)=NN1C=O)OCO3 (centres undefined)	1.72	0.44	–
CNCC(=O)N1N=C(c2ccc(N)cc2)c2cc3c(cc2CC1C)OCO3 (centres undefined)	0	0.02	–
CC1Cc2cc3c(cc2C(c2ccc(N)cc2)=NN1C(=O)CN)OCO3 (centres undefined)	0	0.1	–
COCC(=O)N1N=C(c2ccc(N)cc2)c2cc3c(cc2CC1C)OCO3 (centres undefined)	1.02	–	–
CC(=O)N1N=C(c2ccc(N)cc2)c2cc3c(cc2C[C@H]1C)OCO3 [TALAMPANEL]	2.74	1.12	–
CCCCC(=O)N1N=C(c2ccc(N)cc2)c2cc3c(cc2CC1C)OCO3 (centres undefined)	0	0.22	–
CC1Cc2cc3c(cc2C(c2ccc(N)cc2)=NN1C(=O)Nc1ccccc1)OCO3 (centres undefined)	0.13	–	–
CC1Cc2cc3c(cc2C(c2ccc(N)cc2)=NN1C(=O)Cc1ccccc1)OCO3 (centres undefined)	0	–	–
CC1Cc2cc3c(cc2C(c2ccc(N)cc2)=NN1C(=O)CC#N)OCO3 (centres undefined)	0.21	–	–
CCCCNC(=O)N1N=C(c2ccc(N)cc2)c2cc3c(cc2CC1C)OCO3 (centres undefined)	0.35	0.65	–
CCC(=O)N1N=C(c2ccc(N)cc2)c2cc3c(cc2CC1C)OCO3 (centres undefined)	2.55	1.55	–
CC1Cc2cc3c(cc2C(c2ccc(N)cc2)=NN1C(=O)c1ccccc1)OCO3 (centres undefined)	0	–	–
CC(N)C(=O)N1N=C(c2ccc(N)cc2)c2cc3c(cc2CC1C)OCO3 (centres undefined)	0.08	0	–
CC1Cc2cc3c(cc2C(c2ccc(N)cc2)=NN1C(=O)C(C)(C)C)OCO3 (centres undefined)	0	–	–
CC1Cc2cc3c(cc2C(c2ccc(N)cc2)=NN1C(=O)C1CC1)OCO3 (centres undefined)	1.66	1.48	–
